These results are taken from ChEMBL document CHEMBL1135511, “Structure activity of 3-aryl-1,3-diketo-containing compounds as HIV-1 integrase inhibitors” (J Med Chem, 2002).

The IC50 is the point on the concentration scale where inhibition reaches its midpoint. Low values mean greater potency in that assay, high ones weaker potency in that assay.

Test [1] has as its target T1, Human immunodeficiency virus type 1 integrase (Human immunodeficiency virus 1, UniProt Q7ZJM1). The experiment in a line: Inhibitory effect on strand transfer of proximal DNA into host DNA in an extracellular HIV-1 integrase assay in experiment 2.
Test [2] deals with T1, Human immunodeficiency virus type 1 integrase.
For test [3] the target is unchanged. Put plainly: Inhibitory effect on strand transfer of proximal DNA into host DNA in an extracellular HIV-1 integrase assay in experiment 1.
The target is the same in test [4]. This is another data set of the same source.
The nature of test [5]: Inhibitory concentration by single cycle replication assay using envelope deficient HIV-1. In kind it is functional, Homo sapiens.
The target of test [6] is T1, Human immunodeficiency virus type 1 integrase. The experiment in a line: Inhibitory effect on 3'-processing(3'-P) of proximal DNA in an extracellular HIV-1 integrase assay in experiment 1.
Test [7] has the same target. The experiment in a line: Inhibitory effect on 3'-processing(3'-P) of proximal DNA in an extracellular HIV-1 integrase assay in experiment 2.

Bounds are passed on as bounds.

T1 sequence (Q7ZJM1 whole entry): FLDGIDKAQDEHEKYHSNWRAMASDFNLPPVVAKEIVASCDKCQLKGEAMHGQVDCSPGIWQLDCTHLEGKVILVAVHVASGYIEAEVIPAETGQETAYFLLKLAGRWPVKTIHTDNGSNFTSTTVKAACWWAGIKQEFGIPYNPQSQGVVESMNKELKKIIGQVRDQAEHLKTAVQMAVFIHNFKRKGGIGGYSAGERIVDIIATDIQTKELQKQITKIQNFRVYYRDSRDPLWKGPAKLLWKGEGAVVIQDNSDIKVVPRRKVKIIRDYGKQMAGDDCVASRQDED

`O=C(O)C(=O)/C=C(\O)c1ccc(Oc2ccccc2)cc1`: the IC50 in test [1] is 15 µM; in test [2], greater than 100 µM; in test [3], 7.8 µM.

As for `O=C(O)C(=O)/C=C(\O)c1c[nH]c2ccccc12`, the values for the IC50 in test [4] and in test [2] were 1.43 µM and greater than 100 µM, respectively.

For the molecule `CCOC(=O)C(=O)/C=C(\O)c1c[nH]c2ccc(Cl)cc12`, the IC50 in test [4] was 6.9 µM; in test [2], greater than 100 µM.

For `COc1ccc(Cn2nnnc2C(=O)/C=C(\O)c2c[nH]c3ccc(Cl)cc23)cc1`, the IC50 was 34 µM in test [4] and greater than 100 µM in test [2].

For `COc1ccc(Cn2nnnc2C(=O)/C=C(\O)c2cc(OCc3ccccc3)cc(OCc3ccccc3)c2)cc1`, the IC50 in test [4] and in test [2] was greater than 100 µM each time.

Turning to `O=C(O)C(=O)/C=C(\O)c1ccnc2ccccc12`, the IC50 in test [4] and in test [2] was greater than 100 µM each time.

In the case of `O=C(O)C(=O)/C=C(\O)c1cc(OCc2ccccc2)cc(OCc2ccccc2)c1`, the results for the IC50 in test [4], in test [5] and in test [2] were 0.48 µM, 2.3 µM and greater than 1000 µM, respectively.

Take `O=C(O)C(=O)/C=C(\O)c1cccc(Br)c1`: the IC50 was 3 µM in test [1], greater than 100 µM in test [2] and 2 µM in test [3].

In test [4], `O=C(O)C(=O)/C=C(\O)c1c[nH]c2ccc(Cl)cc12` had a half-maximal inhibitory concentration (IC50) of 0.52 µM.

In the case of `O=C(O)C(=O)/C=C(\O)c1ccc(/C(O)=C/C(=O)C(=O)O)cc1`, the IC50 in test [6] was 7.2 µM; in test [7] it was 7.5 µM; in test [4], 1.28 µM.

As for `COc1ccc(Cn2nnnc2C(=O)/C=C(\O)c2c[nH]c3ccccc23)cc1`, the IC50 in test [4] and in test [2] was greater than 100 µM each time.

Take `O=C(O)c1ccc2[nH]cc(C(=O)CC(=O)c3nnn[nH]3)c2c1`: the IC50 in test [4] and in test [2] was 40 µM throughout.

Turning to `COc1cc(Cn2nnnc2C(=O)/C=C(\O)c2c[nH]c3ccccc23)cc(OC)c1`, the IC50 in test [4] and in test [2] was greater than 100 µM each time.

With `O=C(O)C(=O)/C=C(\O)c1cccc(NC(=O)c2ccccc2)c1`, the IC50 in test [4] was 35 µM; in test [2] it was greater than 100 µM.

Consider `O=C(O)C(=O)/C=C(\O)c1cc(/C(O)=C/C(=O)C(=O)O)c2ccccc2n1`, for which the 50% inhibitory concentration (IC50) in test [4] amounted to 6.5 µM; in test [2], 82 µM.

`O=C(CC(=O)c1c[nH]c2ccccc12)c1nnn[nH]1`: the 50% inhibitory concentration (IC50) in test [1] is 2 µM; in test [2], greater than 100 µM; in test [3], 1.9 µM.

As to `O=C(O)C(=O)/C=C(\O)c1cccc(OCc2ccccc2)c1`, the half-maximal inhibitory concentration (IC50) in test [7] turned out to be 100 µM; in test [4], 0.35 µM; in test [5], 0.6 µM.

Turning to `O=C(O)C(=O)/C=C(\O)c1cccc(/C(O)=C/C(=O)C(=O)O)c1`, the results for the half-inhibitory concentration (IC50) in test [4] and in test [2] were 1.83 µM and 7.8 µM, respectively.

Consider `O=C(CC(=O)c1c[nH]c2ccc(F)cc12)c1nnn[nH]1`, for which the IC50 in test [4] came out at 1.8 µM; in test [2], 79 µM.
